# System: Meloidogyne incognita
# Test: Meloidogyne incognita test (sand, salad seedlings, gall formation)
# Assay type: in vivo
# Settings: application rate 20 ppm, after 14 days, 100% = no galls, 0% = galls equal to untreated control
# Procedure: Meloidogyne Incognita—Test
# Solvent: 125.0 parts by weight of acetone
# To produce a suitable preparation of active compound, 1 part by weight of active compound is mixed with the stated amount of solvent, and the concentrate is diluted with water to the desired concentration.
# Vessels are filled with sand, a solution of the active ingredient, a suspension containing eggs and larvae of the southern root-knot nematode (Meloidogyne incognita) and salad seeds. The salad seeds germinate and the seedlings grow. Galls develop in the roots.
# After 14 days the nematicidal activity is determined on the basis of the percentage of gall formation. 100% means no galls were found and 0% means the number of galls found on the roots of the treated plants was equal to that in untreated control plants.
row,SMILES,nematicidal activity on the basis of the percentage of gall formation
1,CS(=O)(=O)NC(=O)c1cc2c(Cl)cc(C(F)(F)F)cn2n1 [Example I-15],90%
2,O=C(NS(=O)(=O)c1ccccc1Cl)c1cc2cc(Cl)cc(Cl)n2n1 [Example I-46],90%
3,CC(C)Sc1cccc(Cl)c1S(=O)(=O)NC(=O)c1cc2cc(C(F)(F)F)cc(Cl)n2n1 [Example I-64],100%
4,O=C(NS(=O)(=O)c1c(F)cccc1Cl)c1cc2cc(C(F)(F)F)cc(Cl)n2n1 [Example I-65],100%
5,CC(C)Nc1cccc(F)c1S(=O)(=O)NC(=O)c1cc2cc(Cl)cc(Cl)n2n1 [Example I-66],90%
6,O=C(NS(=O)(=O)c1c(F)cccc1Cl)c1cc2cc(Cl)cc(Cl)n2n1 [Example I-67],90%
7,COc1ccc(F)c(S(=O)(=O)NC(=O)c2cc3cc(Cl)cc(Cl)n3n2)c1 [Example I-68],100%
8,COc1ccc(Br)c(S(=O)(=O)NC(=O)c2cc3cc(Cl)cc(Cl)n3n2)c1 [Example I-69],100%
9,COc1ccc(Br)c(S(=O)(=O)NC(=O)c2cc3cc(C(F)(F)F)cc(Cl)n3n2)c1 [Example I-70],100%
10,CSc1cccc(Cl)c1S(=O)(=O)NC(=O)c1cc2cc(C(F)(F)F)cc(Cl)n2n1 [Example I-71],100%
11,O=C(NS(=O)(=O)c1cc(C(F)(F)F)ccc1Cl)c1cc2cc(C(F)(F)F)cc(Cl)n2n1 [Example I-72],100%
12,O=C(NS(=O)(=O)c1cc(C(F)(F)F)ccc1Br)c1cc2cc(C(F)(F)F)ccn2n1 [Example I-73],100%
13,COc1ccc(F)c(S(=O)(=O)NC(=O)c2cc3cc(C(F)(F)F)cc(Cl)n3n2)c1 [Example I-74],100%
14,CCc1ccc(C)c(S(=O)(=O)NC(=O)c2cc3cc(Cl)cc(Cl)n3n2)c1 [Example I-75],100%
15,CSc1cccc(Cl)c1S(=O)(=O)NC(=O)c1cc2cc(Cl)cc(Cl)n2n1 [Example I-76],90%
16,CCc1ccc(C)c(S(=O)(=O)NC(=O)c2cc3cc(C(F)(F)F)cc(Cl)n3n2)c1 [Example I-77],100%
17,CCc1ccc(C)c(S(=O)(=O)NC(=O)c2cc3cc(C(F)(F)F)ccn3n2)c1 [Example I-78],100%

# System: Meloidogyne incognita
# Test: Meloidogyne incognita test (soil drench, loamy sand, gall formation)
# Assay type: in vivo
# Settings: application rate 8 ppm, after 21 days, salad seedlings, 100% = no galls
# Procedure: Meloidogyne incognita—Test
# Solvent: 7 parts by weight of dimethylformamide
# Emulsifier: 2.5 parts by weight of alkylarylpolyglycolether
# To produce a suitable preparation of active compound, 1 part by weight of active compound is mixed with the stated amount of solvent and emulsifier and is diluted with water to the desired concentration. In the calculation of the concentration the soil volume has to be included. […] Further test concentrations are prepared by dilution with water.
# The compound solution is poured into pots filled with soil (loamy sand). A suspension containing eggs and larvae of the southern root-knot nematode (Meloidogyne incognita) is added, salad seeds are spread on the soil surface and covered with quartz sand. The salad seeds germinate and the seedlings grow. Galls develop on the roots.
# After 21 days the nematicidal activity is determined on the basis of the percentage of gall formation. 100% means no galls were found; 0% means the number of galls found on the roots of the treated plants was equal to that in untreated control plants.
row,SMILES,nematicidal activity on the basis of the percentage of gall formation
1,O=C(NS(=O)(=O)c1cc(Cl)ccc1Cl)c1cc2cc(Cl)cc(Cl)n2n1 [Example I-47],80%

# System: Myzus persicae
# Test: Myzus persicae spray test
# Assay type: in vivo
# Settings: application rate 500 g/ha; after 6 days; sprayed Chinese cabbage leaf disks; 100% = all aphids killed
# Procedure: Myzus Persicae—Spray Test
# (§1) Solvent: 78.0 parts by weight acetone • 1.5 parts by weight dimethylformamide
# (§2) Emulsifier: alkylarylpolyglycol ether
# (§3) To produce a suitable preparation of active compound, 1 part by weight of active compound is mixed with the stated amount of solvents and is diluted with water, containing an emulsifier concentration of 1000 ppm, to the desired concentration. Further test concentrations are prepared by dilution with emulsifier containing water.
# Chinese cabbage (Brassica pekinensis) leaf disks infected with all instars of the green peach aphid (Myzus persicae), are sprayed with a preparation of the active ingredient of the desired concentration.
# After 6 days mortality in % is determined. 100% means all aphids have been killed and 0% means none of the aphids have been killed.
row,SMILES,mortality
1,CS(=O)(=O)NC(=O)c1cc2c(Cl)cc(C(F)(F)F)cn2n1 [Example I-15],100%
2,O=C(NS(=O)(=O)c1ccccc1Cl)c1cc2cc(Cl)cc(Cl)n2n1 [Example I-46],90%

# System: Tetranychus urticae
# Test: Tetranychus urticae spray test OP-resistant
# Assay type: in vivo
# Settings: application rate 500 g/ha, after 6 days, sprayed French bean leaf disks, 100% = all spider mites killed
# Procedure: Tetranvechus urticae—spray test OP-resistant
# as §1, §2, §3
# French bean (Phaseolus vulgaris) leaf disks which are heavily infested with all stages of the two spotted spidermite (Tetranychus urticae), are sprayed with a preparation of the active ingredient of the desired concentration.
# After 6 days mortality in % is determined. 100% means all spider mites have been killed and 0% means none of the spider mites have been killed.
row,SMILES,mortality
1,CS(=O)(=O)NC(=O)c1cc2c(Cl)cc(C(F)(F)F)cn2n1 [Example I-15],85%
